How the values were obtained:
[1] = molecular target: T1, Protein arginine N-methyltransferase 3 (Homo sapiens, UniProt O60678)
Description: Inhibition of PRMT3 (unknown origin) using C-terminally biotinylated histone H4 as substrate in presence of [3H]S-adenosylmethionine by scintillation proximity assay

[2] = molecular target: T1, Protein arginine N-methyltransferase 3; experiment: Binding affinity to beta galactosidase fused human PRMT3 (211 to 531 residues) expressed in human A549 cells after 6 hrs by InCELL hunter assay; type: cell-based
[3] = molecular target: T1, Protein arginine N-methyltransferase 3; experiment: Binding affinity to beta galactosidase fused human PRMT3 (211 to 531 residues) expressed in human HEK293 cells after 6 hrs by InCELL hunter assay; type: cell-based
[4] = molecular target: T1, Protein arginine N-methyltransferase 3; experiment: Inhibition of FLAG-tagged wild type human PRMT3 expressed in HEK293 cells assessed as decrease in exogenous H4R3 dimethylation level using GFP-tagged histone H4 as substrate after 24 hrs by Western blot analysis; type: cell-based

T1 sequence (O60678 whole entry, the tested form may be a part): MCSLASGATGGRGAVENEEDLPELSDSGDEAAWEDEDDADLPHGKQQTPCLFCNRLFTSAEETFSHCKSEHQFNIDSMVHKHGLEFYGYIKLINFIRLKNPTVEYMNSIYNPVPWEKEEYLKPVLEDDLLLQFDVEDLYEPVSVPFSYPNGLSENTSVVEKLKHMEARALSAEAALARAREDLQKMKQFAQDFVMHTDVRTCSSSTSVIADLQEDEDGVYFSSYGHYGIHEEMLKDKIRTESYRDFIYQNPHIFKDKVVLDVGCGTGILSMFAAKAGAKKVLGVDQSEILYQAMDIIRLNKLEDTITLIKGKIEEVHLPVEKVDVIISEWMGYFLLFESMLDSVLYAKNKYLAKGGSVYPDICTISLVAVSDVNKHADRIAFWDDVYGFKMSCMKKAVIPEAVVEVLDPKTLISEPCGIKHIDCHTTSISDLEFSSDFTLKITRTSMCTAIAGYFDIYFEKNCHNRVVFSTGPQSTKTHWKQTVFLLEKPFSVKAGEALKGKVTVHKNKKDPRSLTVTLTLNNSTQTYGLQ

Row | SMILES | IC50 [1] [nM] | EC50 [2] [nM] | EC50 [3] [nM] | IC50 [4] [nM]
1 | O=C(NCC(=O)N1C2CCCC1CC2)Nc1ccc2cnccc2c1 | 22 | – | – | –
2 | O=C(NCC(=O)N1CC(F)(F)C(F)(F)C1)Nc1ccc2cnccc2c1 | 24 | 2700 | 3100 | 240
3 | O=C(NCCc1ccccc1)Nc1ccc2cnccc2c1 | 833 | – | – | –
4 | CN1CCN(C(=O)CNC(=O)Nc2ccc3cnccc3c2)CC1 | > 1900 | – | – | –
5 | O=C(CNC(=O)Nc1ccc2cnccc2c1)NC1CC1 | 158 | – | – | –
6 | O=C(NCC(=O)N1CCCC1)Nc1cc2ccncc2cc1F | 19 | 1600 | 2700 | –
7 | O=C(NCCC1CC1)Nc1ccc2cnccc2c1 | > 8000 | – | – | –
8 | O=C(NCC(=O)N1C2CCC1CC2)Nc1ccc2cnccc2c1 | 46 | – | – | –
9 | O=C(CNC(=O)Nc1ccc2cnccc2c1)NC1CCCCC1 | 477 | – | – | –
10 | O=C(NCC(=O)N1CCCCC1)Nc1ccc2cnccc2c1 | 84 | – | – | –
11 | CON(C)C(=O)CNC(=O)Nc1ccc2cnccc2c1 | 476 | – | – | –

Source: ChEMBL document CHEMBL4024780, “Discovery of Potent and Selective Allosteric Inhibitors of Protein Arginine Methyltransferase 3 (PRMT3)” (J Med Chem, 2018)
